The source of these data is patent US20230279482A1, “COMPOSITIONS, METHODS AND USES FOR QUANTIFYING TRANSCRIPTION AND BIOSENSING OF SMALL MOLECULES USING A NOVEL TYPE VI CRISPR-CAS ASSAY” (THE REGENTS OF THE UNIVERSITY OF COLORADO, A BODY CORPORATE, priority 2020, published 2023).

The target in test [1] is T1, bacterial RNAP (Escherichia coli, UniProt P0A8V2). The following applies: cited from earlier work.
In test [2] the target is T1, bacterial RNAP. The experiment in a line: SPRINT rifampicin titration with constitutive promoter. The class given is biochemical, E. coli.
Target sequence in this assay (P0A8V2 whole entry): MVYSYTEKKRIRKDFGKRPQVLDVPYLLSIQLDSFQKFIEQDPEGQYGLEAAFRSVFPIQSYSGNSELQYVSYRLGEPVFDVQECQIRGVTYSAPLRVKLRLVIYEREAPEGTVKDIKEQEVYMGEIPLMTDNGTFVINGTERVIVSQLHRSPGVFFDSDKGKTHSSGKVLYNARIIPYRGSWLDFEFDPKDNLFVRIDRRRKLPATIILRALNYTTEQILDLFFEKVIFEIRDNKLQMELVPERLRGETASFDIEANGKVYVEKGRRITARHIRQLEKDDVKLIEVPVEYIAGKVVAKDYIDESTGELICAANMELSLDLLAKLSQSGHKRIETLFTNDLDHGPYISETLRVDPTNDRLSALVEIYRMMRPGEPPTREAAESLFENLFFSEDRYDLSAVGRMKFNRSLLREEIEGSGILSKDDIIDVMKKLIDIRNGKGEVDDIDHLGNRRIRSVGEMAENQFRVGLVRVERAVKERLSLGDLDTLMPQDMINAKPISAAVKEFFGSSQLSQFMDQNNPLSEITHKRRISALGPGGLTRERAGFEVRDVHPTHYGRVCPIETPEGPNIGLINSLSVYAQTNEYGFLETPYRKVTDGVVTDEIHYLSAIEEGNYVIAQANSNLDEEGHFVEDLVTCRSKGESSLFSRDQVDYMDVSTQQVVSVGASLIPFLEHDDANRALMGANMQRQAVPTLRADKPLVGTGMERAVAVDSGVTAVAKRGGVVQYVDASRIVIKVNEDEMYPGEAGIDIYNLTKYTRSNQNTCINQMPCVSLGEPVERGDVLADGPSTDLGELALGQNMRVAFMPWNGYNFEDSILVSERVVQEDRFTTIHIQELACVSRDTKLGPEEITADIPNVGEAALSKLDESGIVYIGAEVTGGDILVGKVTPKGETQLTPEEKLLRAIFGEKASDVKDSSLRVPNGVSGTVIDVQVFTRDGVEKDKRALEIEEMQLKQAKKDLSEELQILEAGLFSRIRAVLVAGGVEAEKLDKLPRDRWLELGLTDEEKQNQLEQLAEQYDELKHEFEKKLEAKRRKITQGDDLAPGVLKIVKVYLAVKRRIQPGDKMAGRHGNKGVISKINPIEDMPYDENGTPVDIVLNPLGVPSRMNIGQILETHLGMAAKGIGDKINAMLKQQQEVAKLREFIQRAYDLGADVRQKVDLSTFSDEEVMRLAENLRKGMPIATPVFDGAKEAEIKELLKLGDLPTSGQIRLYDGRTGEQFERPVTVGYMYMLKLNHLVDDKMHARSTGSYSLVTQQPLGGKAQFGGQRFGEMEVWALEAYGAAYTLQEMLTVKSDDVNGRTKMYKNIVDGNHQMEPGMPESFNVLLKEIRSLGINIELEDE
Target sequence in this assay (P0A8T7 whole entry partner): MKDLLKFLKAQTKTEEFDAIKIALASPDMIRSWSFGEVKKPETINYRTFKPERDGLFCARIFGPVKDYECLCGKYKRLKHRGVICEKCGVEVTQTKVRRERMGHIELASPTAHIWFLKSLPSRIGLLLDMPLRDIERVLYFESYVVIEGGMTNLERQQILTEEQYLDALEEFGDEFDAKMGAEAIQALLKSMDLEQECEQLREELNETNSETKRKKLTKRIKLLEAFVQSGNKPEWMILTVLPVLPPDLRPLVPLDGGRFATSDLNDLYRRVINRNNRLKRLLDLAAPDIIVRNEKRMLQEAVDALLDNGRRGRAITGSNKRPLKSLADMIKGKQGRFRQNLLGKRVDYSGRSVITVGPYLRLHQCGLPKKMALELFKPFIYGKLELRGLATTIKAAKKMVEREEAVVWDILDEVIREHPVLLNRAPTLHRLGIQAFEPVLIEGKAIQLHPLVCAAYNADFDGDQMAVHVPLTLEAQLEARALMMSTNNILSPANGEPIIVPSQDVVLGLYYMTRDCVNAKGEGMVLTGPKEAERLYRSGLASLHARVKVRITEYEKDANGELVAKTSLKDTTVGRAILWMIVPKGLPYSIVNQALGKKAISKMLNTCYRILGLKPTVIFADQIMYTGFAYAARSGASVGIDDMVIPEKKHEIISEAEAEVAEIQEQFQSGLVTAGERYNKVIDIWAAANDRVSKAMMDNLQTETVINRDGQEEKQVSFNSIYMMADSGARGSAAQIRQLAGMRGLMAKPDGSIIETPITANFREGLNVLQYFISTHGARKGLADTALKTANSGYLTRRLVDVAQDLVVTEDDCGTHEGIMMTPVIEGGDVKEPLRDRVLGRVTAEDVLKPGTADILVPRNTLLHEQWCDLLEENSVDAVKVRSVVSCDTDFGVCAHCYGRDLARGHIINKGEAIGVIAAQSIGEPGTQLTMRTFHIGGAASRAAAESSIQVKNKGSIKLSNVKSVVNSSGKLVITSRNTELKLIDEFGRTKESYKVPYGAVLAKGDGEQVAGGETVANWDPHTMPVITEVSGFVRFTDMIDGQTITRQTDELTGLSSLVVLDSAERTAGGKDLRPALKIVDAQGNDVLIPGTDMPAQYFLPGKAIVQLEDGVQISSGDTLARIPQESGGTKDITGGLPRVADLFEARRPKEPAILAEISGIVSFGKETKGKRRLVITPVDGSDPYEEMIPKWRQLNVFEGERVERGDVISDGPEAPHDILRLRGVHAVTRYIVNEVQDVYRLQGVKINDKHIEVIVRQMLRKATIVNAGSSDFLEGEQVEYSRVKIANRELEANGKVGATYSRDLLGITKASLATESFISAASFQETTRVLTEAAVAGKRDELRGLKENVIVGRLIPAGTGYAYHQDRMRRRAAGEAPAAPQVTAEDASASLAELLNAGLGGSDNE
Target sequence in this assay (P0A7Z4 whole entry partner): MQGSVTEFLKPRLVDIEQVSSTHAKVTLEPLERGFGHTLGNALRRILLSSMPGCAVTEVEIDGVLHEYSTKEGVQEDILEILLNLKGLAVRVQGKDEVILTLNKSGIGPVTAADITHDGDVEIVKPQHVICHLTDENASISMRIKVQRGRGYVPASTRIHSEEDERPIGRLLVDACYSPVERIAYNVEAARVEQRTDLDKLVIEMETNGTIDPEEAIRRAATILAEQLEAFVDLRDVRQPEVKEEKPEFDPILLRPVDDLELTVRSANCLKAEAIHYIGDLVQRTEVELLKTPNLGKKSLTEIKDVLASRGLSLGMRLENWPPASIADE
Target sequence in this assay (P0A800 whole entry partner): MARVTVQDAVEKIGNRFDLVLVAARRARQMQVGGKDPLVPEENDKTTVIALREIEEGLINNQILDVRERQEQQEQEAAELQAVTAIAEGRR
Target sequence in this assay (P00579 whole entry partner): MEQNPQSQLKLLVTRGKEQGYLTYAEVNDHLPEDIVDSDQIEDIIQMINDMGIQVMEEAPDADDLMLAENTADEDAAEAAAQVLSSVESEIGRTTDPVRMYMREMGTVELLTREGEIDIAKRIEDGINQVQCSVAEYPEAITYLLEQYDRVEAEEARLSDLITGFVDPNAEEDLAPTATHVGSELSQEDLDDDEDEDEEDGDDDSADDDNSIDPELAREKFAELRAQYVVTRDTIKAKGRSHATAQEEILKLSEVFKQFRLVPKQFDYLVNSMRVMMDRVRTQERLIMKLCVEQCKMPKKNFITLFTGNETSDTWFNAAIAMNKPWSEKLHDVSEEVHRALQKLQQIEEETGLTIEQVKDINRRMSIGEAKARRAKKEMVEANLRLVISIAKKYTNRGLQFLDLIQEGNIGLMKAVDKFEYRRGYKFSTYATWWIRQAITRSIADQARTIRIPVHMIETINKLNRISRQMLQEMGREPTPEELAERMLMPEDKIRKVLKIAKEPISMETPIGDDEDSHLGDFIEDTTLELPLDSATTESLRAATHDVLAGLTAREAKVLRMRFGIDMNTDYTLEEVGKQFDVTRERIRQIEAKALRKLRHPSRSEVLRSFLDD
The test system of test [3] is guanine riboswitch xpt/pbuE*6U. Briefly: SPRINT compound screen on guanine riboswitch. In kind it is biochemical. The following applies: 1 μM, FIG. 10. How it is done: Briefly, the transcriptional response of the guanine riboswitch xpt/pbuE*6U to 30 different compounds was measured at two different concentrations each (FIG. 9A and FIG. 10). The concentrations used were 10 μM and 1 mM for most compounds. The signal that was obtained from control experiments with the solvents DMSO or water was subtracted from all values.

Test [4] relates to guanine riboswitch. The following applies: as low as; cited from earlier work.
Test [5] concerns bacteria. The following applies: cited from earlier work.
The subject of test [6] is SPRINT assay without riboswitch (constitutively transcribed Cas13a target). Briefly: SPRINT control screen with constitutive promoter template (PAINS identification). The following applies: FIG. 9B.
Experimental: The master mix was gently mixed by pipetting up and down and incubated at 37° C. for 15 minutes to allow binding of crRNA to Cas13a protein and the microwell plate was prepared by adding 3 μL of 10× ligand to the wells. The reaction was initiated by addition of rNTPs to the master mix to a concentration of 20 μM and then 27 μL of the complete master mix were added to each well and pipetted up and down to mix with the ligand in the wells. The plate was covered with an optical adhesive film to prevent evaporation of the sample while taking fluorescence measurements in a plate reader that was preheated to 37° C.
The subject of test [7] is S-adenosylmethionine (SAM)-responsive riboswitch yitJ/pbuE*6U. The experiment in a line: SPRINT assay with SAM riboswitch. The settings on record: FIG. 4A. The class given is biochemical. The method, then: SPRINT reactions. Pentauridine RNA oligonucleotides were labeled with carboxyfluorescein (FAM) or TEX 615 at the 5′-end and with Iowa Black FQ at the 3′-end. Fluorescence measurements were taken at wavelengths 490/525 nm (excitation/emission) when the FAM fluorophore was used. In reactions with flavin-containing ligands, TEX-labeled RNA oligos were used at the wavelengths 576/615 (excitation/emission). Fluorescence measurements were taken every 5 minutes.
For exemplary SPRINT assays, a master mix was first prepared and then mixed with the remaining reaction reagent components to yield a final reaction volume of 30 μL; fluorescent readings of the entire reaction volume were performed in Corning 384 Flat Bottom Black Polystyrol plates. This master mix (SPRINT buffer, 10×), for assays contemplated herein can include, but is not limited to: 700 mM Tris-HCl, pH 8.0, 700 mM NaCl, 1 mM EDTA, 140 mM β-mercaptoethanol, and 25 mM MgCl2. Aliquots of an exemplary 10× SPRINT buffer were stored at −20° C. and not allowed to undergo more than 10 freeze-thaw cycles.
In another exemplary method, to test the versatility of SPRINT, small-molecule dependent transcriptional regulation of various riboswitches was examined. […]

Test [8] relates to metE riboswitch. Briefly: SPRINT assay with native metE OFF riboswitch (with heparin, single turnover). The class given is biochemical, B. subtilis. The following applies: OFF switch, heparin added, FIG. 7B; read-out: T50 value (reduction of transcriptional rate). The method, then: For amplification of the native metE riboswitch from the genome, the following protocol was used: Colony PCR was performed, using the oligos “metE_fwd” (SEQ ID NO: 13) and “metE_rev” (SEQ ID NO: 14) at Tm=64° C. with Q5 DNA polymerase. The constant 5′ and 3′ parts of the SPRINT constructs were also amplified via PCR reactions, using any plasmid with a complete SPRINT sequence as template. The 5′ constant part was amplified with oligos “InsulatorOligo_fwd” (SEQ ID NO:1) and “e.coliProm_rev” (SEQ ID NO: 8). The 3′ constant part was amplified with oligos “RiboswitchBB_fwd” (SEQ ID NO: 7) and “ssDNA1_rev” (SEQ ID NO: 2). […] The PCR product was purified, quantified and used for a SPRINT reaction.
In another exemplary method, certain riboswitches described herein were re-engineered for certain properties such as wide dynamic range and a ligand-induced “ON”. […] Initially, measurements at intermediate concentrations of SAM were difficult to quantify because the high rate of transcription from the B. subtilis metE OFF-switch required very high concentrations of SAM to repress the signal (FIG. 8). […]

For test [9], the target named is T2, tetR (Escherichia coli, UniProt P04483). The settings on record: read-out: previously reported range; cited from earlier work.
T2 sequence (P04483 whole entry): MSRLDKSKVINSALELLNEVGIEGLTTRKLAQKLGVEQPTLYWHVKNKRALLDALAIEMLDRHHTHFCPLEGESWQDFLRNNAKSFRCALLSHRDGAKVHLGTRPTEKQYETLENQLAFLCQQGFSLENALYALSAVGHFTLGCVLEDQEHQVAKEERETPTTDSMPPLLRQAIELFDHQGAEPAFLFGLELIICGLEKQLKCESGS
Test [10] concerns the target T2, tetR. Briefly: biochemical. The method, then:
In other exemplary methods, reactions with allosteric transcription factors (aTFs), ROSALIND reagent buffer (10× buffer containing, for assays contemplated herein, but not limited to: 400 mM Tris-HCl, pH 8.0, 200 mM NaCl, 20 mM spermidine, 100 mM DTT and 80 mM MgCl2) were used. The buffer was prepared fresh or stored as single-use aliquots at −80° C. […] The final concentration of the aTF monomers was either 2.5 μM tetR or 10 μM smtB. The master mix was incubated for 15 minutes at 37° C. which allows the aTFs to bind to the operator sequence.
In another exemplary method, bacterial transcription can be regulated by allosteric transcription factors (aTFs), such as activators or repressors, which have previously been used for small molecule detection. Another system (“ROSALIND”) enabled rapid detection of compounds via aTFs. […] The ROSALIND buffer system differs from the SPRINT or SHERLOCK buffer. Therefore, it was tested whether aTF-based ROSALIND reactions could be integrated with the Cas13a-based detection method. To simplify the system, the inorganic pyrophosphatase (IPPase) enzyme was first removed from the ROSALIND system. IPPase was used in transcription reactions to degrade pyrophosphate which was a reaction product of the RNA polymerase and can inhibit the reaction. […] Adaptions included reducing the concentrations of rNTP from 2.85 mM to 40 μM, DNA template from 25 to 15 nM, and T7 RNAP from 10 to 6.7 ng/μL.
The responses of the de-repressors tetR and smtB were measured with SPRINT.

Each structure is given as a SMILES string. Read-outs that look alike come from different tables or passages of the source.

As a reminder, the Kd is the concentration at which binding is half-saturated. What is called IC50 is the concentration at which inhibition is half-maximal. A low value points to greater potency. As for `CO[C@H]1/C=C/O[C@@]2(C)Oc3c(C)c(O)c4c(O)c(c(/C=N/N5CCN(C)CC5)c(O)c4c3C2=O)NC(=O)/C(C)=C\C=C\[C@H](C)[C@H](O)[C@@H](C)[C@@H](O)[C@@H](C)[C@H](OC(C)=O)[C@@H]1C` [rifampicin], in test [1], the dissociation constant Kd was 3 nM. For the same molecule, in [2], the IC50 came out at 5.9 ± 0.6 nM.

Turning to `Nc1nc(N)c(N)c(=O)[nH]1` [2,5,6-TAP], the “transcriptional activation at low concentration” value in [3] was “only slightly activated transcription”. Further, the “concentration at which it binds the guanine riboswitch” value in test [4] is given as at least 100 nM. For the same molecule, in [5], the “concentration with bactericidal properties” value was 8 mM. In addition, the “effect on enzymatic activity of the SPRINT assay at high concentration” value in [6] (100 μM, FIG. 10) is “completely shut down enzymatic activity”. In test [6] (constitutive promoter template), the “interference with SPRINT assay (PAINS)” value is “interfering compounds”.

As for `C[S+](CC[C@H](N)C(=O)O)C[C@H]1O[C@@H](n2cnc3c(N)ncnc32)[C@H](O)[C@@H]1O` (some centres unmarked) [SAM, S-adenosylmethionine], the “response of SAM riboswitch to ligand” value in test [7] is reported as “responsive”. Also, in test [8], the EC50 was about 1000 nM.

Take `Cc1c2c(c(O)c3c(O)cccc13)C(=O)[C@]1(O)C(=O)C(C(N)=O)=C(O)[C@@H](N(C)C)[C@@H]1C2` [anhydrotetracycline]: the EC50 is 1000 to 2500 nM in test [9] and 1900 ± 200 nM in test [10].
